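Growth conditions: 96-well plates. Treatment: test compound, 48 hours, 5 concentrations. Analysis: linear interpolation between bracketing concentrations; unreached endpoints set to highest concentration. GI50: concentration for 50% inhibition of growth. TGI: concentration producing complete growth inhibition.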
Experiments:
Assay in all cases: NCI-60 cell line screen, 48 h
MDA-MB-435 = test system: MDA-MB-435
M14 melanoma = test system: M14 melanoma
NCI-H23 lung = test system: NCI-H23 lung
UACC-257 melanoma = test system: UACC-257 melanoma
UACC-62 melanoma = test system: UACC-62 melanoma
SNB-75 CNS = test system: SNB-75 CNS
SN12C renal = test system: SN12C renal
IGROV1 ovarian = test system: IGROV1 ovarian
OVCAR-8 ovarian = test system: OVCAR-8 ovarian
MALME-3M melanoma = test system: MALME-3M melanoma

SMILES	GI50 (MDA-MB-435)	TGI (MDA-MB-435)	GI50 (M14 melanoma)	TGI (M14 melanoma)	GI50 (NCI-H23 lung)	TGI (NCI-H23 lung)	GI50 (UACC-257 melanoma)	TGI (UACC-257 melanoma)	GI50 (UACC-62 melanoma)	TGI (UACC-62 melanoma)	GI50 (SNB-75 CNS)	TGI (SNB-75 CNS)	GI50 (SN12C renal)	TGI (SN12C renal)	GI50 (IGROV1 ovarian)	TGI (IGROV1 ovarian)	GI50 (OVCAR-8 ovarian)	TGI (OVCAR-8 ovarian)	TGI (MALME-3M melanoma)	GI50 (MALME-3M melanoma)
CCSCC1CC(O)(c2ccccc2)C(c2ccccc2)C(c2ccc(F)cc2)O1 (configuration not stated)	1980 nM	5240 nM	1740 nM	3.23 µM	2010 nM	4.87 µM	2100 nM	4.88 µM	1910 nM	5.5 µM	1520 nM	3.67 µM	1890 nM	5.25 µM	2680 nM	7.12 µM	2640 nM	8.54 µM	–	–
O=[N+]([O-])c1ccc(-c2ccc(C3=Nn4c(CNc5ccccc5Cl)nnc4SC3)o2)cc1	–	–	–	> 100 µM	–	> 100 µM	–	> 100 µM	–	> 100 µM	–	> 100 µM	–	> 100 µM	–	> 100 µM	–	> 100 µM	> 100 µM	–
COc1ccc(-c2nc3ccc(Cc4ccc5nc(-c6ccc(OC)cc6)[nH]c5c4)cc3[nH]2)cc1	< 10 nM	20.2 nM	< 10 nM	0.111 µM	51.6 nM	2.81 µM	1500 nM	3.31 µM	47.1 nM	2.19 µM	25.9 nM	1.23 µM	165 nM	2.29 µM	44.5 nM	2.26 µM	43.8 nM	1.17 µM	–	–
COc1cc(C(=O)/C=C/c2cccc(Nc3ccnc4cc(Cl)ccc34)c2)cc(OC)c1OC	–	–	–	–	1670 nM	3.68 µM	1430 nM	3.06 µM	1030 nM	2.36 µM	1310 nM	3.64 µM	–	–	1320 nM	3.8 µM	524 nM	2.12 µM	3.38 µM	1460 nM
CC(=O)OCC(=O)[C@@]1(O)CC[C@H]2[C@@H]3C[C@H](C)C4=CC(=O)C=C[C@]4(C)[C@@]3(F)[C@@H](O)C[C@@]21C	–	–	–	> 100 µM	–	> 100 µM	–	> 100 µM	–	> 100 µM	–	> 100 µM	–	–	–	> 100 µM	–	–	> 100 µM	–
O=C1N[C@@H]2CCCC[C@@H]2C12CCCCC2	–	–	–	> 100 µM	–	> 100 µM	–	> 100 µM	–	> 100 µM	–	> 100 µM	–	> 100 µM	–	> 100 µM	–	> 100 µM	> 100 µM	–
CCOC(=O)c1ccc(N=Nc2ccc(N(CCC#N)CCC#N)cc2C)cc1	–	–	–	> 100 µM	–	> 100 µM	–	> 100 µM	–	> 100 µM	–	–	–	> 100 µM	–	> 100 µM	–	> 100 µM	> 100 µM	–
OC(c1ccccc1Br)(c1ccccc1Br)C(F)(F)F	–	–	–	> 100 µM	–	78.3 µM	–	72.9 µM	–	57.7 µM	–	85.2 µM	–	38.6 µM	–	> 100 µM	–	> 100 µM	52.3 µM	–
O=C(CCCC(=O)Nc1ccc(Cl)cc1Cl)CC(=O)c1ccc2ccccc2c1	–	–	–	> 100 µM	–	> 100 µM	–	> 100 µM	–	> 100 µM	–	–	–	> 100 µM	–	> 100 µM	–	> 100 µM	> 100 µM	–
O=C(c1cccs1)c1c(C(F)(F)F)n([O-])c2cc(Cl)c(Cl)cc2[n+]1=O	1500 nM	3120 nM	906 nM	2.45 µM	919 nM	2.37 µM	1860 nM	3.85 µM	1180 nM	2.54 µM	–	–	1310 nM	2.83 µM	73 nM	1.07 µM	1460 nM	3.47 µM	2.65 µM	1230 nM
c1ccc(C(c2ccccc2)c2ccccn2)cc1	–	–	–	> 100 µM	–	> 100 µM	–	> 100 µM	–	> 100 µM	–	> 100 µM	–	> 100 µM	–	> 100 µM	–	> 100 µM	> 100 µM	–
CNCc1ccc(-c2cc(-c3nc(-c4ccc(S(=O)(=O)C(C)C)cc4)cnc3N)on2)cc1	1350 nM	2790 nM	1180 nM	2.6 µM	676 nM	28.3 µM	3050 nM	9.35 µM	4770 nM	26.6 µM	11400 nM	26.4 µM	8580 nM	33.4 µM	1200 nM	10.5 µM	2310 nM	5.94 µM	–	–
COc1ccc2nc(NC(=O)C(=O)CC(=O)c3ccc([N+](=O)[O-])cc3)sc2c1	–	–	–	> 100 µM	–	> 100 µM	–	> 100 µM	–	> 100 µM	–	> 100 µM	–	> 100 µM	–	> 100 µM	–	> 100 µM	> 100 µM	–
CCOC(=O)C1=C(NC)OCC1=O	–	–	–	> 100 µM	–	> 100 µM	–	> 100 µM	–	> 100 µM	–	> 100 µM	–	> 100 µM	–	> 100 µM	–	> 100 µM	> 100 µM	–
O=C1NC(=O)C2C(=O)NC(=O)C1C2Cc1ccco1 (configuration not stated)	–	–	–	> 100 µM	–	> 100 µM	–	> 100 µM	–	> 100 µM	–	> 100 µM	–	> 100 µM	–	> 100 µM	–	> 100 µM	> 100 µM	–
COC(=O)C1=C(C(=O)OC)C2(c3ccccc3)OC1(c1ccccc1)c1cc3ccccc3cc12	–	–	–	3.33 µM	–	4.48 µM	–	–	–	4.26 µM	–	1.99 µM	–	4.18 µM	–	3.78 µM	–	2.96 µM	3.19 µM	–
NC1=NC(Cn2nc(-c3ccccc3)c3ccccc3c2=O)=NNC(=O)N1	–	–	–	> 100 µM	–	> 100 µM	–	> 100 µM	–	> 100 µM	–	> 100 µM	–	> 100 µM	–	> 100 µM	–	> 100 µM	> 100 µM	–
COc1ccc(-c2[nH]c3ccc(OC)cc3c2C=C(C#N)C#N)cc1	–	–	376 nM	> 100 µM	1250 nM	> 100 µM	> 100000 nM	> 100 µM	355 nM	> 100 µM	551 nM	97.7 µM	15900 nM	> 100 µM	> 24000 nM	> 100 µM	> 100000 nM	> 100 µM	> 100 µM	> 100000 nM
